Results reported in BindingDB's records for doi:10.1016/j.ejmech.2020.112422 (China Medical University, 2020).

What was measured:
[1] = Inhibition of ABCB1 in human HeLa S3 cells assessed as potentiation of vincristine-induced cytotoxicity by measuring vincristine IC50 at 5 uM measured after 72 hrs by SRB assay (Rvb = 4.55 +/- 0.28 nM)
[2] = Inhibition of ABCB1 in human HeLa S3 cells assessed as potentiation of doxorubicin-induced cytotoxicity by measuring doxorubicin IC50 at 5 uM measured after 72 hrs by SRB assay (Rvb = 242 +/- 5 nM)
[3] = Inhibition of ABCB1 in human HeLa S3 cells assessed as potentiation of paclitaxel-induced cytotoxicity by measuring paclitaxel IC50 at 5 uM measured after 72 hrs by SRB assay (Rvb = 26.50 +/- 4.1 nM)
[4] = Inhibition of ABCB1 in FLp-In-293 cells assessed as potentiation of doxorubicin-induced cytotoxicity by measuring doxorubicin IC50 at 2.5 uM measured after 72 hrs by SRB assay (Rvb = 80 +/- 10 nM)
[5] = Inhibition of ABCB1 in human KB-VIN cells assessed as potentiation of vincristine-induced cytotoxicity by measuring vincristine IC50 at 5 uM measured after 72 hrs by SRB assay (Rvb = 2867 +/- 142 nM)
[6] = Inhibition of ABCB1 in FLp-In-293 cells assessed as potentiation of paclitaxel-induced cytotoxicity by measuring paclitaxel IC50 at 5 uM measured after 72 hrs by SRB assay (Rvb = 11.8 +/- 1.13 nM)
[7] = Inhibition of human full-length ABCB1 expressed in FLp-In-293 cells assessed as potentiation of doxorubicin-induced cytotoxicity by measuring doxorubicin IC50 at 5 uM measured after 72 hrs by SRB assay (Rvb = 2264 +/- 196 nM)
[8] = Inhibition of human full-length ABCB1 expressed in FLp-In-293 cells assessed as potentiation of vincristine-induced cytotoxicity by measuring vincristine IC50 at 5 uM measured after 72 hrs by SRB assay (Rvb = 823 +/- 16 nM)
[9] = Inhibition of ABCB1 in human KB-VIN cells assessed as potentiation of vincristine-induced cytotoxicity by measuring vincristine IC50 at 2.5 uM measured after 72 hrs by SRB assay (Rvb = 2867 +/- 142 nM)
[10] = Inhibition of human full-length ABCB1 expressed in FLp-In-293 cells assessed as potentiation of paclitaxel-induced cytotoxicity by measuring paclitaxel IC50 at 2.5 uM measured after 72 hrs by SRB assay (Rvb = 797 +/- 73 nM)
[11] = Inhibition of human full-length ABCB1 expressed in FLp-In-293 cells assessed as potentiation of vincristine-induced cytotoxicity by measuring vincristine IC50 at 2.5 uM measured after 72 hrs by SRB assay (Rvb = 823 +/- 16 nM)
[12] = Inhibition of ABCB1 in FLp-In-293 cells assessed as potentiation of paclitaxel-induced cytotoxicity by measuring paclitaxel IC50 at 2.5 uM measured after 72 hrs by SRB assay (Rvb = 11.8 +/- 1.13 nM)
[13] = Inhibition of ABCB1 in human HeLa S3 cells assessed as potentiation of doxorubicin-induced cytotoxicity by measuring doxorubicin IC50 at 2.5 uM measured after 72 hrs by SRB assay (Rvb = 242 +/- 5 nM)
[14] = Inhibition of ABCB1 in human KB-VIN cells assessed as potentiation of paclitaxel-induced cytotoxicity by measuring paclitaxel IC50 at 2.5 uM measured after 72 hrs by SRB assay (Rvb = 1762 +/- 63 nM)
[15] = Inhibition of ABCB1 in human KB-VIN cells assessed as potentiation of doxorubicin-induced cytotoxicity by measuring doxorubicin IC50 at 2.5 uM measured after 72 hrs by SRB assay (Rvb = 4736 +/- 59 nM)
[16] = Inhibition of ABCB1 in FLp-In-293 cells assessed as potentiation of vincristine-induced cytotoxicity by measuring vincristine IC50 at 5 uM measured after 72 hrs by SRB assay (Rvb = 6 +/- 0.2 nM)
[17] = Inhibition of human full-length ABCB1 expressed in FLp-In-293 cells assessed as potentiation of doxorubicin-induced cytotoxicity by measuring doxorubicin IC50 at 2.5 uM measured after 72 hrs by SRB assay (Rvb = 2264 +/- 196 nM)
[18] = Inhibition of ABCB1 in FLp-In-293 cells assessed as potentiation of doxorubicin-induced cytotoxicity by measuring doxorubicin IC50 at 5 uM measured after 72 hrs by SRB assay (Rvb = 80 +/- 10 nM)
[19] = Inhibition of ABCB1 in FLp-In-293 cells assessed as potentiation of vincristine-induced cytotoxicity by measuring vincristine IC50 at 2.5 uM measured after 72 hrs by SRB assay (Rvb = 6 +/- 0.2 nM)
[20] = Inhibition of ABCB1 in human HeLa S3 cells assessed as potentiation of paclitaxel-induced cytotoxicity by measuring paclitaxel IC50 at 2.5 uM measured after 72 hrs by SRB assay (Rvb = 26.50 +/- 4.1 nM)
[21] = Inhibition of ABCB1 in human HeLa S3 cells assessed as potentiation of vincristine-induced cytotoxicity by measuring vincristine IC50 at 2.5 uM measured after 72 hrs by SRB assay (Rvb = 4.55 +/- 0.28 nM)
[22] = Inhibition of ABCB1 in human KB-VIN cells assessed as potentiation of paclitaxel-induced cytotoxicity by measuring paclitaxel IC50 at 5 uM measured after 72 hrs by SRB assay (Rvb = 1762 +/- 63 nM)
[23] = Inhibition of ABCB1 in human KB-VIN cells assessed as potentiation of doxorubicin-induced cytotoxicity by measuring doxorubicin IC50 at 5 uM measured after 72 hrs by SRB assay (Rvb = 4736 +/- 59 nM)
[24] = Inhibition of human full-length ABCB1 expressed in FLp-In-293 cells assessed as potentiation of paclitaxel-induced cytotoxicity by measuring paclitaxel IC50 at 5 uM measured after 72 hrs by SRB assay (Rvb = 797 +/- 73 nM)

SMILES	IC50 [1] [nM]	IC50 [2] [nM]	IC50 [3] [nM]	IC50 [4] [nM]	IC50 [5] [nM]	IC50 [6] [nM]	IC50 [7] [nM]	IC50 [8] [nM]	IC50 [9] [nM]	IC50 [10] [nM]	IC50 [11] [nM]	IC50 [12] [nM]	IC50 [13] [nM]	IC50 [14] [nM]	IC50 [16] [nM]	IC50 [17] [nM]	IC50 [18] [nM]	IC50 [19] [nM]	IC50 [20] [nM]	IC50 [21] [nM]	also measured
COc1ccc(-c2cc(OC(C)=O)c3c(-c4cccs4)c(NC(=O)c4ccccc4C)oc3c2)cc1	3.7	103	8.9	89	6.5	7.2	478	8.9	36	109	84	9.1	116	345	0.83	525	82	0.88	11	5.1	IC50 [15]: 1550 nM; IC50 [22]: 46 nM; IC50 [23]: 397 nM; IC50 [24]: 55 nM
COc1ccc(-c2cc(OC(C)=O)c3c(-c4cccs4)c(NC(=O)c4ccccc4Cl)oc3c2)cc1	2.2	86	8.8	77	7.6	6.3	502	9.2	37	602	114	6.4	111	80	0.82	564	73	0.88	9.6	3.9	IC50 [22]: 21 nM; IC50 [23]: 102 nM; IC50 [24]: 91 nM
COc1ccc(-c2cc(OC(C)=O)c3c(-c4cccs4)c(NC(=O)c4cccc(F)c4)oc3c2)cc1	4.7	87	11	81	12	5.3	504	25	60	621	96	6.6	93	116	3.7	559	82	6.3	12	5.4	IC50 [15]: 2210 nM; IC50 [22]: 48 nM; IC50 [23]: 1400 nM; IC50 [24]: 77 nM
COc1ccc(-c2cc(OC(C)=O)c3c(-c4cccs4)c(N(C(C)=O)C(C)=O)oc3c2)cc1	5.2	102	14	87	314	10	677	582	501	647	663	11	105	652	4	874	82	4.5	14	5.7	IC50 [15]: 1740 nM; IC50 [22]: 597 nM; IC50 [23]: 1500 nM; IC50 [24]: 645 nM
